Reference: the supplement of paper PMC11061612

Assays:
Experiment in all cases: combination Emax (second highest fraction inhibited in the dose matrix, 72 h); higher = more inhibition; extreme values may be limits of the assay
[1] = tested on: COR-L23 (Non-Small Cell Lung Carcinoma)
In short: (§1)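 Bliss excess equals the observed combination effect minus the expected value EA + EB − EA·EB, where EA and EB are the effects of each agent alone. Combination Emax is the second-highest inhibition within the matrix. Inhibition was scaled from CellTiter-Glo 2.0 luminescence, with 0 set by vehicle wells and 1 by blank wells, after 72 hours of two-drug dosing of cells plated in 1536-well plates.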

[2] = tested on: CTV-1 (T-Lymphoblastic Leukemia)
In short: as §1

[3] = tested on: OCI-AML2 (Acute Myeloid Leukemia)
In short: as §1

[4] = tested on: NCI-H1793 (Lung Adenocarcinoma)
In short: as §1

[5] = tested on: SW1990 (Pancreatic Carcinoma)
In short: as §1

[6] = tested on: SW780 (Bladder Carcinoma)
In short: as §1

[7] = tested on: MFH-ino (Other Solid Carcinomas)
In short: as §1

[8] = tested on: MDA-MB-231 (Breast Carcinoma)
In short: as §1

NCI-H2369 (Mesothelioma) = tested on: NCI-H2369 (Mesothelioma)
In short: as §1

ES7 (Ewing's Sarcoma) = tested on: ES7 (Ewing's Sarcoma)
In short: as §1

[9] = tested on: MDA-MB-157 (Breast Carcinoma)
In short: as §1

[10] = tested on: LS-513 (Colorectal Carcinoma)
In short: as §1

[11] = tested on: NCI-H1781 (Lung Adenocarcinoma)
In short: as §1

[12] = tested on: NALM-6 (B-Lymphoblastic Leukemia)
In short: as §1

[13] = tested on: DMS-273 (Small Cell Lung Carcinoma)
In short: as §1

[14] = tested on: DOV13 (Ovarian Carcinoma)
In short: as §1

[15] = tested on: G-292-Clone-A141B1 (Osteosarcoma)
In short: as §1

[16] = tested on: TE-5 (Esophageal Squamous Cell Carcinoma)
In short: as §1

NCI-H2595 (Mesothelioma) = tested on: NCI-H2595 (Mesothelioma)
In short: as §1

[17] = tested on: KM-H2 (Hodgkin's Lymphoma)
In short: as §1

SMILES	combination Emax [1]	combination Emax [2]	combination Emax [3]	combination Emax [4]	combination Emax [5]	combination Emax [6]	combination Emax [7]	combination Emax [8]	combination Emax (NCI-H2369 (Mesothelioma))	combination Emax (ES7 (Ewing's Sarcoma))	combination Emax [9]	combination Emax [10]	combination Emax [11]	combination Emax [12]	combination Emax [13]	combination Emax [14]	combination Emax [15]	combination Emax [16]	combination Emax (NCI-H2595 (Mesothelioma))	combination Emax [17]
CN(CCO)CC[C@H](CSc1ccccc1)Nc1ccc(S(=O)(=O)NC(=O)c2ccc(N3CCC([C@@H](O)c4ccccc4-c4ccc(Cl)cc4)CC3)cc2)cc1S(=O)(=O)C(F)(F)F [AZD4320] + CN(C)CCCOc1ccc(-c2ccc3ncc4c(c3c2)n(C2CCOCC2)c(=O)n4C)cn1 [AZD0156] (first compound max 1 µM, 7x7, partner max 1 µM)	0.0875	0.211	1	0.253	0.079	0.521	0.102	0.655	0.0933	0.747	0.0946	0.2	0.183	0.973	0.247	0.731	0.647	0.43	0.12	0.155
COc1nnc2ccc(N3CCC(c4ccc(OCCN5CCN(C)C(=O)[C@H]5C)cc4)CC3)nn12 [AZD5153] + C[C@@H]1COCCN1C2=NC(=NC(=C2)C3(CC3)[S@](=N)(=O)C)C4=C5C=CNC5=NC=C4 [AZD6738] (first compound max 1 µM, 7x7, partner max 10 µM)	0.772	0.987	1	0.629	0.497	0.465	0.547	0.81	0.363	0.952	0.913	0.755	0.491	0.958	0.883	0.923	0.458	0.503	0.461	0.89
CC1(C)CCC(CN2CCN(c3ccc(C(=O)NS(=O)(=O)c4ccc(NCC5CCOCC5)c([N+](=O)[O-])c4)c(Oc4cnc5[nH]ccc5c4)c3)CC2)=C(c2ccc(Cl)cc2)C1 [Venetoclax] + CCN(CCO)CCCOc1ccc2c(Nc3cc(CC(=O)Nc4cccc(F)c4)[nH]n3)ncnc2c1 [AZD2811] (first compound max 1 µM, 7x7, partner max 1 µM)	0.172	0.184	1	0.234	0.625	0.193	0.191	0.226	0.173	0.911	0.56	0.399	0.577	0.97	0.806	0.523	0.235	0.29	0.611	0.305
NC1(C(=O)N[C@@H](CCO)c2ccc(Cl)cc2)CCN(c2ncnc3[nH]ccc23)CC1 [Capivasertib] + CC(C)n1c(=O)n(C)c2cnc3cc(F)c(-c4ccc(OCCCN5CCCCC5)nc4)cc3c21 [AZD1390] (first compound max 10 µM, 7x7, partner max 0.3 µM)	0.37	0.547	0.586	0.265	0.143	0.176	0.28	0.334	0.222	0.446	0.25	0.471	0.485	0.675	0.71	0.462	0.219	0.303	0.279	0.222
C[C@@H](c1ccc2nccn2c1)n1nnc2ncc(-c3cnn(C)c3)nc21 [Savolitinib] + CC1(C)CCC(CN2CCN(c3ccc(C(=O)NS(=O)(=O)c4ccc(NCC5CCOCC5)c([N+](=O)[O-])c4)c(Oc4cnc5[nH]ccc5c4)c3)CC2)=C(c2ccc(Cl)cc2)C1 [Venetoclax] (first compound max 1 µM, 7x7, partner max 1 µM)	0.111	0.091	0.93	0.193	0.225	0.11	0.171	0.306	0.096	0.177	0.11	0.0791	0.208	0.316	0.239	0.143	0.0932	0.123	0.227	0.15
Cn1cnc2c(F)c(Nc3ccc(Br)cc3Cl)c(C(=O)NOCCO)cc21 [Selumetinib] + CCN(CCO)CCCOc1ccc2c(Nc3cc(CC(=O)Nc4cccc(F)c4)[nH]n3)ncnc2c1 [AZD2811] (first compound max 10 µM, 7x7, partner max 1 µM)	0.467	0.291	1	0.203	0.245	0.435	0.273	0.519	0.203	0.792	0.215	0.85	0.623	0.836	0.804	0.4	0.102	0.186	0.169	0.168
CN(CCO)CC[C@H](CSc1ccccc1)Nc1ccc(S(=O)(=O)NC(=O)c2ccc(N3CCC([C@@H](O)c4ccccc4-c4ccc(Cl)cc4)CC3)cc2)cc1S(=O)(=O)C(F)(F)F [AZD4320] + C[C@@H]1COCCN1C2=NC(=NC(=C2)C3(CC3)[S@](=N)(=O)C)C4=C5C=CNC5=NC=C4 [AZD6738] (first compound max 1 µM, 7x7, partner max 10 µM)	0.621	0.822	1	0.498	0.845	0.506	0.51	0.849	0.324	1	0.94	0.821	0.519	1	0.813	0.974	0.754	0.77	0.214	0.909
CCN(CCO)CCCOc1ccc2c(Nc3cc(CC(=O)Nc4cccc(F)c4)[nH]n3)ncnc2c1 [AZD2811] + O=C(c1cc(Cc2n[nH]c(=O)c3ccccc23)ccc1F)N1CCN(C(=O)C2CC2)CC1 [Olaparib] (first compound max 1 µM, 7x7, partner max 10 µM)	0.0799	0.375	0.873	0.0897	0.168	0.242	0.338	0.275	0.216	0.918	0.251	0.404	0.67	0.873	0.735	0.483	0.304	0.184	0.226	0.384
Cc1c2c(nn1C)CSCc1cc(n(C)n1)CSc1cc(c3ccccc3c1)OCCCc1c(C(=O)O)n(C)c3c-2c(Cl)ccc13 [AZD5991] + C1CN(CCC1(C(=O)N[C@@H](CCO)C2=CC=C(C=C2)Cl)N)C3=NC=NC4=C3C=CN4 [Capivasertib] (first compound max 1 µM, 7x7, partner max 3 µM)	0.182	0.337	1	0.302	0.121	0.165	0.248	0.194	0.22	0.825	0.714	0.344	0.76	0.694	0.987	0.272	0.248	0.329	0.311	0.143
Cn1cnc2c(F)c(Nc3ccc(Br)cc3Cl)c(C(=O)NOCCO)cc21 [Selumetinib] + C[C@@H]1COCCN1C2=NC(=NC(=C2)C3(CC3)[S@](=N)(=O)C)C4=C5C=CNC5=NC=C4 [AZD6738] (first compound max 10 µM, 7x7, partner max 10 µM)	0.615	0.906	1	0.524	0.502	0.381	0.421	0.718	0.187	0.777	0.92	0.897	0.396	0.972	0.811	0.763	0.141	0.464	0.165	0.751
CC1(C)CCC(CN2CCN(c3ccc(C(=O)NS(=O)(=O)c4ccc(NCC5CCOCC5)c([N+](=O)[O-])c4)c(Oc4cnc5[nH]ccc5c4)c3)CC2)=C(c2ccc(Cl)cc2)C1 [Venetoclax] + C[C@@H](Nc1cc(F)cc(F)c1)c1cc(C(=O)N(C)C)cc2c(=O)cc(N3CCOCC3)oc12 [AZD8186] (first compound max 1 µM, 7x7, partner max 3 µM)	0.054	0.372	1	0.221	0.452	0.163	0.0981	0.137	0.107	0.904	0.546	0.491	0.28	0.866	0.482	0.306	0.296	0.375	0.163	0.139
NC1(C(=O)N[C@@H](CCO)c2ccc(Cl)cc2)CCN(c2ncnc3[nH]ccc23)CC1 [Capivasertib] + CC(=O)c1c(C)c2cnc(Nc3ccc(N4CCNCC4)cn3)nc2n(C2CCCC2)c1=O [Palbociclib] (first compound max 10 µM, 7x7, partner max 10 µM)	0.442	0.897	0.804	0.361	0.214	0.248	0.483	0.577	0.259	0.655	0.24	0.675	0.479	0.858	0.817	0.588	0.333	0.359	0.214	0.513
